Reference: ChEMBL document CHEMBL1201862, “PubChem BioAssay data set” (2004)
“And” between values parts separate entries of the source, which are not always exact repeats. Equal entries are not always repeated.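 Dose response: 5 concentrations. Exposure: 48 h. Format: 96-well plates. Endpoint: linear interpolation; highest concentration if not reached. The concentration for 50% growth inhibition is given as GI50.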 The source made the active and inactive calls. Rule as the data show it: active = GI50 up to about 1.1 µM and inactive = higher. Non-standard residues stand in square brackets, D forms with d. Residues, ends and D or L forms follow the SMILES beside them. *: point of attachment. X30 = COC1=CC(=O)N(C(=O)[C@@H](O*)C(C)C)[C@H]1Cc1ccccc1; NMeL = CN[C@@H](CC(C)C)C(=O)O; Cbz = O=C(OCc1ccccc1)*

Columns and labels:
Assay in all cases: NCI-60 cell line screen, 48 h
ACHN = test system: ACHN
CCRF-CEM = test system: CCRF-CEM
DU-145 = test system: DU-145
HCC 2998 = test system: HCC 2998
HCT-116 = test system: HCT-116
HT-29 = test system: HT-29
IGROV-1 = test system: IGROV-1
K562 = test system: K562
NCI-H460 = test system: NCI-H460
NCI-H522 = test system: NCI-H522
OVCAR-5 = test system: OVCAR-5
SF-268 = test system: SF-268
SK-MEL-2 = test system: SK-MEL-2
SN12C = test system: SN12C
SR = test system: SR
T47D = test system: T47D
UACC-62 = test system: UACC-62
HL-60 = test system: HL-60
SF-539 = test system: SF-539

Compound | GI50 (ACHN) | GI50 (CCRF-CEM) | GI50 (DU-145) | GI50 (HCC 2998) | GI50 (HCT-116) | GI50 (HT-29) | GI50 (IGROV-1) | GI50 (K562) | GI50 (NCI-H460) | GI50 (NCI-H522) | GI50 (OVCAR-5) | GI50 (SF-268) | GI50 (SK-MEL-2) | GI50 (SN12C) | GI50 (SR) | GI50 (T47D) | GI50 (UACC-62) | GI50 (HL-60) | GI50 (SF-539)
Cc1ccc(S(=O)(=O)N/N=C2\C(=O)Nc3cc(O)c(C(=O)O)cc32)cc1 | > 100 µM (inactive) | > 100 µM (inactive) | > 100 µM (inactive) | > 100 µM (inactive) | > 100 µM (inactive) | > 100 µM (inactive) | > 100 µM (inactive) | > 100 µM (inactive) | > 100 µM (inactive) | > 100 µM (inactive) | > 100 µM (inactive) | > 100 µM (inactive) | > 100 µM (inactive) | > 100 µM (inactive) | > 100 µM (inactive) | > 100 µM (inactive) | > 100 µM (inactive) | – | –
CN(C)Cc1cc(C(=O)O)cc(CN(C)C)c1O | > 100 µM (inactive) | > 100 µM (inactive) | > 100 µM (inactive) | > 100 µM (inactive) | > 100 µM (inactive) | > 100 µM (inactive) | > 100 µM (inactive) | > 100 µM (inactive) | > 100 µM (inactive) | > 100 µM (inactive) | > 100 µM (inactive) | > 100 µM (inactive) | > 100 µM (inactive) | > 100 µM (inactive) | > 100 µM (inactive) | > 100 µM (inactive) | > 100 µM (inactive) | > 100 µM (inactive) | –
O=C1C2CCN(CC2)C1(CO)CO | 17.9 µM (inactive) | 5.06 µM (inactive) | 17.3 µM (inactive) | – | 17 µM (inactive) | 28 µM (inactive) | > 89.5 µM (inactive) | 23.6 µM (inactive) | 66.7 µM (inactive) | 13.1 µM (inactive) | 26 µM (inactive) | > 100 µM (inactive) | 71.8 µM (inactive) | 17.6 µM (inactive) | 20 µM (inactive) | 19.5 µM (inactive) | 25.1 µM (inactive) | 38.7 µM (inactive) | 40.9 µM (inactive)
COc1cc(C2c3cc4c(cc3OC(Nc3ccccc3)C2C)OCO4)cc(OC)c1OC (stereo not given) | 1.39 µM (inactive) | 0.315 µM (active) | 0.923 µM (active) | 1.08 µM (active) | 0.42 µM (active) | 0.396 µM (active) | 1.41 µM (inactive) | 0.282 µM (active) | 0.524 µM (active) | 0.337 µM (active) | – | 1.91 µM (inactive) | 5.65 µM (inactive) | 0.659 µM (active) | 0.828 µM (active) | 42.3 µM (inactive) | 0.621 µM (active) | 0.275 µM (active) | 0.262 µM (active)
O=C1/C(=C\c2ccc(Br)cc2)CCCc2ccccc21 | 16.9 µM (inactive) | 19.7 µM (inactive) | 15.5 µM (inactive) | 14.7 µM (inactive) | 12.4 µM (inactive) | 15 µM (inactive) | 16.4 µM (inactive) | 41.8 µM (inactive) | 17 µM (inactive) | – | 38.6 µM (inactive) | 16.9 µM (inactive) | 19.1 µM (inactive) | 16.5 µM (inactive) | 23 µM (inactive) | 10.5 µM (inactive) | 13.3 µM (inactive) | 14.2 µM (inactive) | 15.5 µM (inactive)
CC(=O)OCC1OC(n2c(-c3ccccc3)c(/N=N/c3ccc(C)cc3)c(C)c(C#N)c2=S)C(OC(C)=O)C(OC(C)=O)C1OC(C)=O (stereo not given) | > 100 µM (inactive) | 11 µM (inactive) | 18.1 µM (inactive) | 22.7 µM (inactive) | 3.26 µM (inactive) | 12.8 µM (inactive) | – | 5.69 µM (inactive) | 10.8 µM (inactive) | – | 23.7 µM (inactive) | 9.04 µM (inactive) | 20.7 µM (inactive) | 6.35 µM (inactive) | 8.99 µM (inactive) | 59.8 µM (inactive) | – | 2.82 µM (inactive) | –
Cc1nc(Nc2ccc(F)cc2)c2sc(=S)n(-c3ccc(F)cc3)c2n1 | 13.7 µM (inactive) | – | 13.4 µM (inactive) | 12.2 µM (inactive) | 3.74 µM (inactive) | 6.17 µM (inactive) | 10.6 µM (inactive) | 33.2 µM (inactive) | 15.5 µM (inactive) | 16.1 µM (inactive) | 17.9 µM (inactive) | 11 µM (inactive) | 15.3 µM (inactive) | 14 µM (inactive) | 3.27 µM (inactive) | 5.31 µM (inactive) | 16.1 µM (inactive) | 23.6 µM (inactive) | –
CCOC(=O)Cc1[nH]c(C(=O)c2ccccc2)cc1C(=O)c1ccccc1 | > 10 µM (inactive) | > 10 µM (inactive) | > 10 µM (inactive) | 50.4 µM (inactive) | 17.5 µM (inactive) | > 10 µM (inactive) | > 10 µM (inactive) | > 10 µM (inactive) | 71.8 µM (inactive) | 52.5 µM (inactive) | > 10 µM (inactive) | 56.4 µM (inactive) | 39 µM (inactive) | > 100 µM (inactive) | 38.4 µM (inactive) | 17.7 µM (inactive) | > 100 µM (inactive) | 33.1 µM (inactive) | –
CC(NNC(=O)c1ccncc1)c1ccccc1 (stereo not given) | > 100 µM (inactive) | > 100 µM (inactive) | > 100 µM (inactive) | > 100 µM (inactive) | > 100 µM (inactive) | > 100 µM (inactive) | > 100 µM (inactive) | > 100 µM (inactive) | – | – | > 100 µM (inactive) | > 100 µM (inactive) | > 100 µM (inactive) | > 100 µM (inactive) | > 100 µM (inactive) | > 100 µM (inactive) | > 100 µM (inactive) | > 100 µM (inactive) | > 100 µM (inactive)
Cc1c2c(n3c(nc4ccccc43)c1C#N)SCC2 | > 10 µM (inactive) | > 10 µM (inactive) | > 10 µM (inactive) | – | > 10 µM (inactive) | > 10 µM (inactive) | > 10 µM (inactive) | > 10 µM (inactive) | > 10 µM (inactive) | – | > 10 µM (inactive) | > 10 µM (inactive) | > 10 µM (inactive) | > 10 µM (inactive) | > 10 µM (inactive) | > 10 µM (inactive) | > 10 µM (inactive) | > 10 µM (inactive) | > 10 µM (inactive)
COc1ccccc1/N=N/c1c(O)ccc2ccccc12 | 13.6 µM (inactive) | – | 54.2 µM (inactive) and 98.9 µM (inactive) | 21.3 µM (inactive) | 33.4 µM (inactive) and 29 µM (inactive) | 34.6 µM (inactive) and 30.7 µM (inactive) | – | > 100 µM (inactive) and 82.8 µM (inactive) | 18.9 µM (inactive) | – | 40.1 µM (inactive) and 38.9 µM (inactive) | 29.9 µM (inactive) and 33.4 µM (inactive) | > 63.4 µM (inactive) and 65 µM (inactive) | 71.4 µM (inactive) and 60.8 µM (inactive) | 24.3 µM (inactive) | 23.3 µM (inactive) and 38.2 µM (inactive) | – | – | –
Cc1cc(S(=O)(=O)Nc2nc3cccnc3[nH]2)c(S)cc1Cl | > 100 µM (inactive) | > 100 µM (inactive) | > 100 µM (inactive) | > 100 µM (inactive) | > 100 µM (inactive) | > 100 µM (inactive) | > 100 µM (inactive) | > 100 µM (inactive) | 73.5 µM (inactive) | 70.5 µM (inactive) | > 100 µM (inactive) | 79.1 µM (inactive) | – | > 100 µM (inactive) | > 100 µM (inactive) | 46.8 µM (inactive) | 85.1 µM (inactive) | > 100 µM (inactive) | > 100 µM (inactive)
CCOc1cc(C2CC(c3ccc(NS(=O)(=O)c4cc([N+](=O)[O-])ccc4C)cc3)=NN2)ccc1O (stereo not given) | 23.7 µM (inactive) | 30.8 µM (inactive) | 36.6 µM (inactive) | – | 20.4 µM (inactive) | 26.8 µM (inactive) | 58.9 µM (inactive) | 24.5 µM (inactive) | – | 26.9 µM (inactive) | 32.1 µM (inactive) | 45.5 µM (inactive) | 21.7 µM (inactive) | 20 µM (inactive) | 22.4 µM (inactive) | 27.9 µM (inactive) | 14 µM (inactive) | 15.5 µM (inactive) | 45.7 µM (inactive)
SC1=C2CCCCCC2=NC2(CCCCCC2)S1 | 13 µM (inactive) | 33.6 µM (inactive) | 30.8 µM (inactive) | 23.3 µM (inactive) | 26.9 µM (inactive) | 24.9 µM (inactive) | 44.1 µM (inactive) | 12.2 µM (inactive) | 17.3 µM (inactive) | – | 30.5 µM (inactive) | 41.7 µM (inactive) | 6.3 µM (inactive) | 37.3 µM (inactive) | 15.6 µM (inactive) | 17.4 µM (inactive) | 26.8 µM (inactive) | 12.1 µM (inactive) | 35.1 µM (inactive)
COC(=O)c1cnc(Cl)cn1 | 71 µM (inactive) | 35.9 µM (inactive) | > 100 µM (inactive) | – | 38.2 µM (inactive) | 54.3 µM (inactive) | 29.4 µM (inactive) | 40.1 µM (inactive) | > 100 µM (inactive) | 2.49 µM (inactive) | 58.3 µM (inactive) | 49 µM (inactive) | 48 µM (inactive) | 30.5 µM (inactive) | 42.5 µM (inactive) | 40.3 µM (inactive) | 33 µM (inactive) | 32.7 µM (inactive) | 74.3 µM (inactive)
COC1=CC(=O)N(C(=O)[C@@H](OC(=O)[C@@H]2CCCN2C(=O)[C@@H]2CCCN2C(=O)[C@H](CC(C)C)N(C)C(=O)[C@@H](NC(=O)[C@@H](NC(=O)OCc2ccccc2)C(C)C)C(C)C)C(C)C)[C@H]1Cc1ccccc1 (Cbz-VV[NMeL]PP-X30) | > 100 µM (inactive) | 35.3 µM (inactive) | > 100 µM (inactive) | > 100 µM (inactive) | 44.6 µM (inactive) | > 100 µM (inactive) | 79.1 µM (inactive) | > 100 µM (inactive) | 52.7 µM (inactive) | > 100 µM (inactive) | > 100 µM (inactive) | > 100 µM (inactive) | 9.42 µM (inactive) | 34.8 µM (inactive) | – | 68.2 µM (inactive) | 48.1 µM (inactive) | > 100 µM (inactive) | 15 µM (inactive)
